# Counter-ions that a name gives are not always drawn.
# Tested on: HMOX1
# Experiment: HMOX1 Protein Assay (immunostaining of HO-1 in NHLF cells, GE InCell 1000)
# Format: cell-based
# Conditions: Homo sapiens, fold change above DMSO treated cells, 16 h; for fold induction at 3 µM: 3 μM compound (asterisk); for fold induction at 5 µM: 5 μM compound
# In short: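 Fold induction of HO-1 over vehicle, normally at 5 μM compound (asterisk marks 3 μM), in 0.8% DMSO medium. Normal human lung fibroblasts were treated 16 h, then paraformaldehyde-fixed, anti-HO-1/Alexa 488 stained with Hoechst, and read by high-content imaging.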
Structure (SMILES),fold induction at 3 µM,fold induction at 5 µM
"Cn1c(Nc2nc3ccc(Cl)cc3s2)nc2cc(C(=O)NCCN3CCOCC3)ccc21 [Example 340, 2-(6-Chloro-benzothiazol-2-ylamino)-1-methyl-1H-benzoimidazole-5-carboxylic acid (2-morpholin-4-yl-ethyl)-amide]",14.4,–
"Cn1c(Nc2nc3ccc(OC(F)(F)F)cc3s2)nc2cc(C(=O)NCCOCCO)c(F)cc21 [Example 237, 6-Fluoro-1-methyl-2-(6-trifluoromethoxy-benzothiazol-2-ylamino)-1H-benzoimidazole-5-carboxylic acid [2-(2-hydroxy-ethoxy)-ethyl]-amide]",–,30.6
"COC(=O)c1ccc2c(c1)nc(Nc1nc3ccc(C)cc3s1)n2C [Example 114, 1-Methyl-2-(6-methyl-benzothiazol-2-ylamino)-1H-benzoimidazole-5-carboxylic acid methyl ester]",–,5.1
"CNC(=O)c1ccc2c(c1)nc(Nc1nc3ccc(OC(F)(F)F)cc3s1)n2C [Example 1, 1-Methyl-2-(6-trifluoromethoxy-benzothiazol-2-ylamino)-1H-benzoimidazole-5-carboxylic acid methyl amide]",–,19.4
"Cn1c(Nc2nc3ccc(OC(F)(F)F)cc3s2)nc2cc(C(=O)NCC(F)(F)F)ccc21 [Example 16, 1-Methyl-2-(6-trifluoromethoxy-benzothiazol-2-ylamino)-1H-benzoimidazole-5-carboxylic acid (2,2,2-trifluoro-ethyl)-amide]",–,30
"CN(C(=O)CNC(=O)c1ccc2c(c1)nc(Nc1nc3ccc(Cl)cc3s1)n2C)C1CCCNC1 (centres unmarked) [Example 396, 2-(6-Chloro-benzothiazol-2-ylamino)-1-methyl-1H-benzoimidazole-5-carboxylic acid [(methyl-piperidin-3-yl-carbamoyl)-methyl]-amide hydrochloride]",–,36
"Cn1c(Nc2nc3ccc(C(F)(F)F)cc3s2)nc2cc(C(=O)NCCCCCO)ccc21 [Example 228, 1-Methyl-2-(6-trifluoromethyl-benzothiazol-2-ylamino)-1H-benzoimidazole-5-carboxylic acid (5-hydroxy-pentyl)-amide]",26,–
"Cn1c(Nc2nc3ccc(Cl)cc3s2)nc2cc(C(=O)NCC(=O)NC3CCOCC3)ccc21 [Example 385, 2-(6-Chloro-benzothiazol-2-ylamino)-1-methyl-1H-benzoimidazole-5-carboxylic acid [(tetrahydro-pyran-4-ylcarbamoyl)-methyl]-amide]",–,24.5
"CCOC(=O)c1cnc2c(c1)nc(Nc1nc3ccc(OC(F)(F)F)cc3s1)n2C [Example 71, 3-Methyl-2-(6-trifluoromethoxy-benzothiazol-2-ylamino)-3H-imidazo[4,5-b]pyridine-6-carboxylic acid ethyl ester]",–,4.2
"CN(C)CC(=O)N1CCC[C@@H](NC(=O)c2ccc3c(c2)nc(Nc2nc4ccc(Cl)cc4s2)n3C)C1 [Example 311, 2-(6-Chloro-benzothiazol-2-ylamino)-1-methyl-1H-benzoimidazole-5-carboxylic acid [(R)-1-(2-dimethylamino-acetyl)-piperidin-3-yl]-amide]",–,77.3
"CCNC(=O)c1ccc2c(c1)nc(Nc1nc3ccc(Cl)cc3s1)n2CC [Example 175, 2-(6-Chloro-benzothiazol-2-ylamino)-1-ethyl-1H-benzoimidazole-5-carboxylic acid ethylamide]",–,28.7
"CNC(=O)c1ccc2c(c1)nc(Nc1nc3ccc(Cl)cc3s1)n2C [Example 88, 2-(6-Chloro-benzothiazol-2-ylamino)-1-methyl-1H-benzoimidazole-5-carboxylic acid methylamide]",–,13
"Cn1c(Nc2nc3ccc(OC(F)(F)F)cc3s2)nc2cc(C(=O)NCCCCO)ccc21 [Example 219, 1-Methyl-2-(6-trifluoromethoxy-benzothiazol-2-ylamino)-1H-benzoimidazole-5-carboxylic acid (4-hydroxy-butyl)-amide]",–,40
"Cn1c(Nc2nc3ccc(OC(F)(F)F)cc3s2)nc2cc(C(=O)NCCCC(C)(C)CO)ccc21 [Example 229, 1-Methyl-2-(6-trifluoromethoxy-benzothiazol-2-ylamino)-1H-benzoimidazole-5-carboxylic acid (5-hydroxy-4,4-dimethyl-pentyl)-amide]",–,14.4
"Cn1c(Nc2nc3ccc(OC(F)(F)F)cc3s2)nc2cc(C(=O)NC3CCN(C(=O)OC(C)(C)C)CC3)ccc21 [Example 92, 4-{[1-Methyl-2-(6-trifluoromethoxy-benzothiazol-2-ylamino)-1H-benzoimidazole-5-carbonyl]-amino}-piperidine-1-carboxylic acid tert-butyl ester]",–,3.4
"CCn1c(Nc2nc3ccc(C(F)(F)F)cc3s2)nc2cc(C(=O)NC)ccc21 [Example 180, 1-Ethyl-2-(6-trifluoromethyl-benzothiazol-2-ylamino)-1H-benzoimidazole-5-carboxylic acid methylamide]",–,12.4
"CCn1c(Nc2nc3ccc(C(F)(F)F)cc3s2)nc2cc(C(=O)NCCSC)ccc21 [Example 185, 1-Ethyl-2-(6-trifluoromethyl-benzothiazol-2-ylamino)-1H-benzoimidazole-5-carboxylic acid (2-methylsulfanyl-ethyl)-amide]",–,11.2
"COC(=O)c1ccc2c(c1)nc(Nc1nc3ccc(SC(F)(F)F)cc3s1)n2C [Example 132, 1-Methyl-2-(6-trifluoromethylsulfanyl-benzothiazol-2-ylamino)-1H-benzoimidazole-5-carboxylic acid methyl ester]",–,5.8
"COCCn1c(Nc2nc3ccc(Cl)cc3s2)nc2cc(C(=O)NCC(=O)N3CCC(O)CC3)ccc21 [Example 438, 2-(6-Chloro-benzothiazol-2-ylamino)-1-(2-methoxy-ethyl)-1H-benzoimidazole-5-carboxylic acid [2-(4-hydroxy-piperidin-1-yl)-2-oxo-ethyl]-amide]",–,25.9
"Cn1c(Nc2nc3ccc(OC(F)(F)F)cc3s2)nc2cc(C(=O)N3CCCC3)ccc21 [Example 7, [1-Methyl-2-(6-trifluoromethoxy-benzothiazol-2-ylamino)-1H-benzoimidazol-5-yl]-pyrrolidin-1-yl-methanone]",–,5.4
"CC(=O)NCCNC(=O)c1ccc2c(c1)nc(Nc1nc3ccc(OC(F)(F)F)cc3s1)n2C [Example 100, 1-Methyl-2-(6-trifluoromethoxy-benzothiazol-2-ylamino)-1H-benzoimidazole-5-carboxylic acid (2-acetylamino-ethyl)-amide]",–,25.9
"CNC(=O)c1ccc2c(c1)nc(Nc1nc3ccc(OC(F)(F)F)cc3s1)n2CCF [Example 170, 1-(2-Fluoro-ethyl)-2-(6-trifluoromethoxy-benzothiazol-2-ylamino)-1H-benzoimidazole-5-carboxylic acid methylamide]",–,23
"CNCCn1c(Nc2nc3ccc(Cl)cc3s2)nc2cc(C(=O)NCCOCCO)ccc21 [Example 240, 2-(6-Chloro-benzothiazol-2-ylamino)-1-(2-methylamino-ethyl)-1H-benzoimidazole-5-carboxylic acid [2-(2-hydroxy-ethoxy)-ethyl]-amide hydrochloride]",–,35.4
